Where a name gives a salt, the structure may show the parent alone.
Legend:
LY2 = assay: Antiproliferation test, LY-2 human breast cancer cells (MCF-7 variant resistant to tamoxifen); type: cell-based; details: for IC50: Homo sapiens, MCF7, 168 h, read-out: TRIPHENYLETHYLENE IC50's AGAINST BREAST CANCER CELLS, IC50, Cell line LY2; for IC50 compared with tamoxifen, in words (both cell lines: LY-2): statement in words
Procedure: (§1) Antiproliferation test Procedure:
(§2) The tests were conducted in 96-well microtiter plates. 5×10^3 cells were added to each well. Culture medium and drug solutions were added to wells with a Perkin Elmer Cetus PRO/PETTE. The culture medium was IMEM supplemented with 5% fetal bovine serum. Eight drug concentrations were tested, in duplicate, from 0.078 micromolar (μM) to 10 μM. After four days incubation the medium was replaced with fresh medium containing drug, and after a total of seven days, the cell monolayers were fixed with trichloracetic acid and stained with sulforhodamine dye. Absorbances (492 nm) of the extracted dye solutions were measured with a Titertek Multiscan plate reader.

MCF-7 = assay: Antiproliferation test, MCF-7 human breast cancer cells (tamoxifen-sensitive); type: cell-based; details: for IC50: Homo sapiens, MCF7, 168 h, read-out: TRIPHENYLETHYLENE IC50's AGAINST BREAST CANCER CELLS, IC50, Cell line MCF-7; for IC50 compared with tamoxifen, in words (both cell lines: MCF-7): statement in words
Procedure: as §1, §2

| Compound | IC50 (LY2) [µM] | IC50 compared with tamoxifen, in words (both cell lines: LY-2) (LY2) | IC50 (MCF-7) [µM] | IC50 compared with tamoxifen, in words (both cell lines: MCF-7) (MCF-7) |
| --- | --- | --- | --- | --- |
| CCN(CC)CCSc1ccc(C(=C(Cl)c2ccccc2)c2ccccc2)cc1 [MDL 10007F, 2-[p-(2-Chloro-1,2-diphenylvinyl)-phenylthio]triethylamine Dihydrogen Citrate] | 1 | lower than the IC50 values of tamoxifen | 0.37 | lower than the IC50 values of tamoxifen |
| CCN(CC)CCNc1ccc(C(=C(Cl)c2ccccc2)c2ccccc2)cc1 [MDL 10222F, 2-[p-(2-Chloro-1,2-diphenylvinyl)-anilino]triethylamine Dihydrogen Citrate] | 3.8 | lower than the IC50 values of tamoxifen | 0.7 | lower than the IC50 values of tamoxifen |
| CCN(CC)CCCc1ccc(C(=C(Cl)c2ccccc2)c2ccccc2)cc1 [MDL 6866F, 1-[p-γ-diethylaminopropyl)phenyl]-1,2-diphenylchloroethylene dihydrogen citrate] | 1.6 | lower than the IC50 values of tamoxifen | 0.32 | lower than the IC50 values of tamoxifen |

Reference: patent publication US5681863A, “Non-metabolizable clomiphene analogs for treatment of tamoxifen-resistant tumors” (Merrell Pharmaceuticals Inc., priority 1994, dated 1997)
